Target: T1, T. k. RNAP (Thermococcus kodakarensis RNA polymerase) (Thermococcus kodakarensis, UniProt Q5JE32+Q5JE33+Q5JE34)
T1 construct: gene rpo1N; assembled on synthetic RNA:DNA scaffold (EC+10); with DNA-directed RNA polymerase subunit Rpo3; DNA-directed RNA polymerase subunit Rpo4; DNA-directed RNA polymerase subunit Rpo5; DNA-directed RNA polymerase subunit Rpo6; DNA-directed RNA polymerase subunit Rpo7; DNA-directed RNA polymerase subunit Rpo10; DNA-directed RNA polymerase subunit Rpo11; DNA-directed RNA polymerase subunit Rpo12
Assay: chemical quench-flow single-nucleotide addition, global fit (MENOTR)
Assay type: biochemical
Conditions: 25 °C, pH 8.39, Mg2+, heparin trap; elongation complex EC+10 on RNA:DNA scaffold; kinetic-model Kd with k1 fixed at 1 × 10^8 M^-1 s^-1; active site
Excerpt: chemical quench-flow single-nucleotide addition, global fit (MENOTR) on T. k. RNAP (Thermococcus kodakarensis RNA polymerase)

For `Nc1ncnc2c1ncn2[C@@H]1O[C@H](COP(=O)(O)OP(=O)(O)OP(=O)(O)O)[C@@H](O)[C@H]1O` [ATP], the Kd was 2980 nM.
